ChEMBL document CHEMBL2040731, “Synthesis and anti-HIV activity of lupane and olean-18-ene derivatives. Absolute configuration of 19,20-epoxylupanes by VCD” (J Nat Prod, 2012)
The source made the active and inactive calls. The calls are words filed in the database; no cut-off is given here.

Legend:
HeLa [1] = experiment: Inhibition of R5-tropic HIV1 envelope glycoprotein-mediated cell-cell fusion between viral envelope expressing human virus-infected HeLa ADA cells to human HeLa P5 cells at 5 uM after 16 hrs by beta-galactosidase reporter gene assay using chemiluminescence method; assay type: cell-based; conditions: Human immunodeficiency virus 1
HeLa [2] = experiment: Inhibition of X4-tropic HIV1 envelope glycoprotein-mediated cell-cell fusion between viral envelope expressing human virus-infected HeLa ADA cells to human HeLa P5 cells at 5 uM after 16 hrs by beta-galactosidase reporter gene assay using chemiluminescence method; assay type: cell-based; conditions: Human immunodeficiency virus 1

| Structure (SMILES) | inhibition (HeLa [1]) | inhibition (HeLa [2]) |
| --- | --- | --- |
| C=C(C=O)[C@@H]1CC[C@]2(C)CC[C@]3(C)[C@H](CC[C@@H]4[C@@]5(C)CC[C@H](O)C(C)(C)[C@@H]5CC[C@]43C)[C@@H]12 | inactive | inactive |
| C=C(C)[C@@H]1CC[C@]2(C)CC[C@]3(C)[C@H](CC[C@@H]4[C@@]5(C)CC[C@H](O)C(C)(C)[C@@H]5CC[C@]43C)[C@@H]12 | inactive | inactive |
| C=C(C)[C@@H]1CC[C@]2(C)CC[C@]3(C)[C@H](CC[C@@H]4[C@@]5(C)CC[C@H](OC(C)=O)C(C)(C)[C@@H]5CC[C@]43C)[C@@H]12 | 31% | 15% |
| C=C(C=O)[C@@H]1CC[C@]2(C)CC[C@]3(C)[C@H](CC[C@@H]4[C@@]5(C)CC[C@H](OC(C)=O)C(C)(C)[C@@H]5CC[C@]43C)[C@@H]12 | 41% | 6% |
| CC1(C)C=C2[C@H]3CC[C@@H]4[C@@]5(C)CC[C@H](O)C(C)(C)[C@@H]5CC[C@@]4(C)[C@]3(C)CC[C@@]2(C)CC1 | inactive | inactive |
| C=C(C=O)[C@@H]1CC[C@]2(CO)CC[C@]3(C)[C@H](CC[C@@H]4[C@@]5(C)CC[C@H](O)C(C)(C)[C@@H]5CC[C@]43C)[C@@H]12 | 26% | 10% |
| CC(=O)O[C@H]1CC[C@]2(C)[C@H]3CC[C@@H]4[C@]56O[C@H]5C(C)(C)CC[C@]6(C)CC[C@@]4(C)[C@]3(C)CC[C@H]2C1(C)C | inactive | inactive |
| C=C(C)[C@@H]1CC[C@]2(C)CC[C@]3(C)[C@H](CC[C@@H]4[C@@]5(C)CCC(=O)C(C)(C)[C@@H]5CC[C@]43C)[C@@H]12 | inactive | inactive |
| C=C(C=O)[C@@H]1CC[C@]2(C)CC[C@]3(C)[C@H](CC[C@@H]4[C@@]5(C)C=CC(=O)C(C)(C)[C@@H]5CC[C@]43C)[C@@H]12 | 28% | 44% |
| CC(=O)O[C@H]1CC[C@]2(C)[C@H]3CC[C@@H]4[C@H]5[C@H]([C@@]6(C)CO6)CC[C@]5(C)CC[C@@]4(C)[C@]3(C)CC[C@H]2C1(C)C | 26% | 6% |
| C=C(C)[C@@H]1CC[C@]2(C)CC[C@]3(C)[C@H](CC[C@@H]4[C@@]5(C)CC/C(=N\O)C(C)(C)[C@@H]5CC[C@]43C)[C@@H]12 | 7% | 23% |
| C=C(C)[C@@H]1CC[C@]2(CO)CC[C@]3(C)[C@H](CC[C@@H]4[C@@]5(C)CC[C@H](O)C(C)(C)[C@@H]5CC[C@]43C)[C@@H]12 | 17% | 34% |
